According to patent US7919486B2, “Use of gallium(III) complexes for the treatment of melanomas” (Niiki Pharma Inc., priority 2007, dated 2011):

Assays:
SK-MEL-5 = assay: cytotoxic activity in cell culture on melanoma cell line SK-MEL-5; type: cell-based; settings: SK-MEL-5 melanoma cell line obtained from human tumors
Description: (§1) The compound of tris(hydroxyquinolinolato)gallium(III) was analyzed with respect to its cytotoxic activity in the cell culture on the melanoma cell lines obtained from human tumors.

SK-MEL-28 = assay: cytotoxic activity in cell culture on melanoma cell line SK-MEL-28; type: cell-based; settings: SK-MEL-28 melanoma cell line obtained from human tumors
Description: as §1

How did the IC50 (SK-MEL-5) turn out when `c1cnc2c([O][Ga]([O]c3cccc4cccnc34)[O]c3cccc4cccnc34)cccc2c1` [tris(hydroxyquinolinolato)gallium(III)] was run?
The IC50 was 0.76 µM.

And the IC50 (SK-MEL-28)?
Its IC50 is 35 µM.
